Reference: the supplement of paper PMC10307832

What was measured:
Test in all cases: relative viability (nuclei count vs DMSO), 5 days (fraction); higher = more cells survive
[1] = compound: Cc1cnc(CNC(=O)c2c(=O)c3ccc(N4CCCN(C)CC4)nc3n3c2sc2ccccc23)cn1 [CX-5461] + CS(=O)(=O)N1CCN(Cc2cc3nc(-c4cccc5[nH]ncc45)nc(N4CCOCC4)c3s2)CC1 [Pictilisib] (partner 1 µM)
How it was run: (§1)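 After 5 days of treatment, lung cancer cells in 1536-well plates were fixed and stained in a single step (final 0.05% Triton X-100, 1% formaldehyde, 1 ug/ml Hoechst) and their nuclei counted on 4× images. Treatment had been applied by pin tool the day after seeding as one drug alone or as a fixed anchor-drug dose with five library-drug doses (not always all listed) in √10 steps. Relative viability is the nuclei count of treated wells divided by that of vehicle wells, and values are medians of duplicate plates.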

[2] = compound: O=C(Nc1cc(C(F)(F)F)cc(C(F)(F)F)c1)c1cc(Cl)ccc1O [IMD-0354] + Nc1nc2[nH]cc(CCc3ccc(C(=O)N[C@@H](CCC(=O)O)C(=O)O)cc3)c2c(=O)[nH]1 [Pemetrexed] (partner 0.2 µM)
How it was run: as §1

[3] = compound: O=C(Nc1cc(C(F)(F)F)cc(C(F)(F)F)c1)c1cc(Cl)ccc1O [IMD-0354] + N=C(N)NC(=N)NCCc1ccccc1 [Phenformin] (partner 250 µM)
How it was run: as §1

[4] = compound: O=C(Nc1cc(C(F)(F)F)cc(C(F)(F)F)c1)c1cc(Cl)ccc1O [IMD-0354] + COc1cc2c(Oc3ccc(NC(=O)C4(C(=O)Nc5ccc(F)cc5)CC4)cc3F)ccnc2cc1OCCCN1CCOCC1 [Foretinib] (partner 0.25 µM)
How it was run: as §1

UMC-11
relative viability ([1]; first compound 0.01 µM): 0.869
relative viability ([1]; first compound 0.03162 µM): 0.835
relative viability ([1]; first compound 0.1 µM): 0.76
relative viability ([1]; first compound 0.3162 µM): 0.149
relative viability ([1]; first compound 1 µM): 0.259
relative viability ([2]; first compound 0.04 µM): 0.819
relative viability ([2]; first compound 0.1265 µM): 0.692
relative viability ([2]; first compound 0.4 µM): 0.281
relative viability ([2]; first compound 1.265 µM): 0.205
relative viability ([2]; first compound 4 µM): 0.219
relative viability ([3]; first compound 0.04 µM): 0.321
relative viability ([3]; first compound 0.1265 µM): 0.229
relative viability ([3]; first compound 0.4 µM): 0.202
relative viability ([3]; first compound 1.265 µM): 0.167
relative viability ([3]; first compound 4 µM): 0.181
relative viability ([4]; first compound 0.04 µM): 1.07
relative viability ([4]; first compound 0.1265 µM): 1.03
relative viability ([4]; first compound 0.4 µM): 0.431
relative viability ([4]; first compound 1.265 µM): 0.235
relative viability ([4]; first compound 4 µM): 0.235
